Measurements taken from ChEMBL document CHEMBL3603790, “2- and 3-Fluoro-3-deazaneplanocins, 2-fluoro-3-deazaaristeromycins, and 3-methyl-3-deazaneplanocin: Synthesis and antiviral properties” (Bioorg Med Chem, 2015).
Calls of active or inactive are those of the source. The calls are words filed in the database; no cut-off is given here.

Experiments:
Rift Valley fever virus = assay: Antiviral activity against Rift Valley fever virus infected in African green monkey Vero 76 cells after 3 days by neutral red dye-based plaque reduction assay; format: functional, organism-based; settings: 72 h
[1] = Cytotoxicity against MDCK cells relative to control; format: cell-based, Canis lupus familiaris; settings: dog
Tacaribe virus = assay: Antiviral activity against Tacaribe virus infected in African green monkey Vero 76 cells after 3 days by neutral red dye-based plaque reduction assay; format: functional, organism-based; settings: Mammarenavirus tacaribeense, 72 h
[2] = Cytotoxicity against African green monkey Vero 76 cells; format: cell-based; settings: chlorocebus sabaeus, Vero 76 cells
[3] = Cytotoxicity against African green monkey Vero 76 cells relative to control; format: cell-based; settings: chlorocebus sabaeus
Influenza B virus = assay: Antiviral activity against Influenza B virus infected in MDCK cells after 3 days by neutral red dye-based plaque reduction assay; format: functional, organism-based; settings: 72 h
Influenza A virus [4] = assay: Antiviral activity against Influenza A virus H3N2 infected in MDCK cells after 3 days by neutral red dye-based plaque reduction assay; format: functional, organism-based
[5] = Cytotoxicity against African green monkey Vero E6 cells; format: cell-based; settings: chlorocebus sabaeus
[6] = Cytotoxicity against HFF; format: cell-based; settings: human, HFF cells
[7] = Selectivity index, ratio of CC50 for African green monkey Vero 76 cells to IC50 for Tacaribe virus; format: functional
[8] = Selectivity index, ratio of CC50 for MDCK cells to IC50 for Influenza A virus H5N1 virus; format: functional
A549 = assay: Cytotoxicity against human A549 cells; format: cell-based
Human betaherpesvirus 5 = assay: Antiviral activity against HCMV infected in HFF after 3 days by neutral red dye-based plaque reduction assay; format: functional, organism-based; settings: Human betaherpesvirus 5, 72 h
[9] = Selectivity index, ratio of CC50 for African green monkey Vero 76 cells to IC50 for Rift Valley fever virus; format: functional
[10] = Selectivity index, ratio of CC50 for HFF to IC50 for HCMV; format: functional
HEL = assay: Cytotoxicity against HEL cells; format: cell-based; settings: human
SARS-CoV = assay: Antiviral activity against SARS coronavirus infected in African green monkey Vero E6 cells after 3 days by neutral red dye-based plaque reduction assay; format: functional, organism-based; settings: Severe acute respiratory syndrome-related coronavirus
[11] = Selectivity index, ratio of CC50 for MDCK cells to IC50 for Influenza B virus; format: functional
[12] = system: Respiratory syncytial virus; assay: Antiviral activity against Respiratory syncytial virus infected in monkey MA104 cells after 3 days by neutral red dye-based plaque reduction assay; format: functional, organism-based
West Nile virus = assay: Antiviral activity against WNV infected in African green monkey Vero 76 cells after 3 days by neutral red dye-based plaque reduction assay; format: functional, organism-based
[13] = Cytotoxicity against African green monkey Vero cells; format: cell-based; settings: chlorocebus sabaeus, Vero cells
[14] = Cytotoxicity against monkey MA104 cells; format: cell-based, Macaca mulatta; settings: rhesus monkey
[15] = Cytotoxicity against African green monkey Vero cells relative to control; format: cell-based; settings: chlorocebus sabaeus
MA104 = assay: Antiviral activity against Parainfluenza virus infected in monkey MA104 cells after 3 days by neutral red dye-based plaque reduction assay; format: functional, cell-based; settings: Paramyxoviridae
Dengue virus = assay: Antiviral activity against Dengue virus infected in African green monkey Vero cells after 3 days by neutral red dye-based plaque reduction assay; format: functional, organism-based; settings: 72 h
[16] = Inhibition of rabbit erythrocytic AdoHcy hydrolase using AdoHcy as substrate assessed as formation of L-homocysteine preincubated for 5 mins followed by substrate addition measured after 1 hr by thiol quantitation reagent-based assay; design: species or system Oryctolagus cuniculus
[17] = system: Venezuelan equine encephalitis virus; assay: Antiviral activity against Venezuelan equine encephalitis virus infected in African green monkey Vero cells after 3 days by neutral red dye-based plaque reduction assay; format: functional, organism-based
Yellow fever virus = assay: Antiviral activity against Yellow fever virus infected in African green monkey Vero cells after 3 days by neutral red dye-based plaque reduction assay; format: functional, organism-based; settings: 72 h
Cowpox virus = assay: Antiviral activity against Cowpox virus infected in HFF after 3 days by neutral red dye-based plaque reduction assay; format: functional, organism-based
[18] = Selectivity index, ratio of CC50 for African green monkey Vero cells to IC50 for Dengue virus; format: functional
Influenza A virus [19] = assay: Antiviral activity against Influenza A virus H5N1 infected in MDCK cells after 3 days by neutral red dye-based plaque reduction assay; format: functional, organism-based; settings: 72 h
unidentified adenovirus = assay: Antiviral activity against Adenovirus infected in human A549 cells after 3 days by neutral red dye-based plaque reduction assay; format: functional, organism-based
HeLa = assay: Cytotoxicity against human HeLa cells; format: cell-based
Vaccinia virus = assay: Antiviral activity against Vaccinia virus infected in HEL cells after 3 days by neutral red dye-based plaque reduction assay; format: functional, organism-based; settings: Orthopoxvirus vaccinia
[20] = Cytotoxicity against MDCK cells; format: cell-based, Canis lupus familiaris; settings: dog, MDCK cells
[21] = Cytotoxicity against human HeLa Ohio-1 cells; format: cell-based
Influenza A virus [22] = assay: Antiviral activity against Influenza A virus H1N1 infected in MDCK cells after 3 days by neutral red dye-based plaque reduction assay; format: functional, organism-based
[23] = system: Respiratory syncytial virus; assay: Antiviral activity against Respiratory syncytial virus infected in human HeLa cells after 3 days by neutral red dye-based plaque reduction assay; format: functional, organism-based
Enterovirus = assay: Antiviral activity against Rhinovirus infected in human HeLa Ohio-1 cells after 3 days by neutral red dye-based plaque reduction assay; format: functional, organism-based
[24] = Cytotoxicity against human […] cells; format: cell-based
Hepatitis B virus = assay: Antiviral activity against HBV infected in human HepG22.2.15 cells after 3 days by neutral red dye-based plaque reduction assay; format: functional, organism-based; settings: HepG2 2.2.15, 72 h

NC(=O)c1ncn([C@@H]2O[C@H](CO)[C@@H](O)[C@H]2O)n1 [RIBAVIRIN]
IC50 (Rift Valley fever virus): 37.3 µM
CC50 [1]: > 100 µM
IC50 (Tacaribe virus): 26.7 µM
CC50 [2]: > 1000 µM
CC50 [3]: > 1000 µM
IC50 (Influenza B virus): 9 µM

Nc1ncc(F)c2c1ncn2[C@@H]1C=C(CO)[C@@H](O)[C@H]1O
Activity (Influenza A virus [4]): inactive
Activity [5]: Non-toxic
CC50 [6]: > 300 µM
Ratio CC50/IC50 [7]: >317
Ratio CC50/IC50 [8]: 34
Activity (A549): Non-toxic
IC50 (Human betaherpesvirus 5): 0.3 µM
IC50 (Rift Valley fever virus): 6.4 µM
CC50 [1]: > 357 µM
Ratio CC50/IC50 [9]: 5.6
Ratio CC50/IC50 [10]: > 1040
Activity (HEL): Non-toxic
Activity (SARS-CoV): inactive
Ratio CC50/IC50 [11]: >1000
Activity [12]: inactive
Activity (West Nile virus): inactive
CC50 [13]: 224 µM
IC50 (Tacaribe virus): < 0.36 µM
CC50 [2]: 36 µM
Activity [14]: Non-toxic
CC50 [15]: 35.7 µM
Activity (MA104): inactive
CC50 [3]: 114 µM
IC50 (Influenza B virus): < 0.36 µM
IC50 (Dengue virus): 7.1 µM
IC50 [16]: 0.0068 µM
Activity [17]: inactive
IC50 (Yellow fever virus): > 224 µM
Activity (Cowpox virus): inactive
Ratio CC50/IC50 [18]: 5
IC50 (Influenza A virus [19]): 1 µM
Activity (unidentified adenovirus): inactive
Activity (HeLa): Non-toxic
Activity (Vaccinia virus): inactive
CC50 [20]: 32.5 µM
Activity [21]: Non-toxic
Activity (Influenza A virus [22]): inactive
Activity [23]: inactive
Activity (Enterovirus): inactive

Nc1ccn([C@@H]2CS[C@H](CO)O2)c(=O)n1 [LAMIVUDINE]
CC50 [24]: 2180 µM
IC50 (Hepatitis B virus): 0.039 µM

Nc1nc2c(ncn2COC(CO)CO)c(=O)[nH]1 [GANCICLOVIR]
CC50 [6]: > 100 µM
IC50 (Human betaherpesvirus 5): 3.6 µM
